Experimental data taken from US7517517B2 (Janssen Pharmaceutica N.V., priority 2002, dated 2009).
Several values for one entry are separate records, joined by “and”; a condition that tells them apart may be missing. Equal values may be shown once. Read-outs that look alike come from different tables or passages of the source.

Key:
rat mGlu1a receptor [1] = biological target: T1, rat mGlu1a receptor (Rattus norvegicus, UniProt P23385); experiment: [3H]Compound A binding to rat mGlu1a receptor CHO-dhfr− membranes (saturation, kinetics, inhibition); conditions: for Ki: 2.5 nM [3H]Compound A, 30 min at 4° C.; for inhibition of [3H]Compound A binding (in words): rat mGlu1a receptor CHO-dhfr− membranes
T1 construct: host or cells: CHO-dhfr- cells

rat mGlu1a receptor [2] = biological target: T1, rat mGlu1a receptor; experiment: [3H]quisqualate binding to rat mGlu1a receptor CHO-dhfr− membranes (saturation, inhibition)
rat mGlu1a receptor [3] = biological target: T1, rat mGlu1a receptor; experiment: Intracellular Ca2+ response in rat mGlu1a receptor expressing CHO-dhfr− cells (FLIPR); assay type: cell-based; conditions: CHO-dhfr− cells expressing rat mGlu1a; same assay; read-out: IC50, inhibition of the glutamate-induced increase in [Ca2+]i
[4] = biological target: T2, cloned rat mGlu1 receptor (Rattus norvegicus, UniProt P23385); experiment: Signal transduction at the cloned rat mGlu1 receptor in CHO cells (glutamate-induced Ca2+ rise, FLIPR); assay type: cell-based
T2 construct: expressed in transfected cells; host or cells: CHO cells

mGlu1 receptor = mGlu1 receptor (Rattus norvegicus, UniProt P23385); experiment: [3H]Compound A binding to rat brain membranes (cortex, hippocampus, striatum, cerebellum); conditions: tested up to 30 μM
Description: Tissue preparation. Male Wistar rats (˜200 g) were sacrificed by decapitation. The brains were rapidly removed and cortex, hippocampus, striatum and cerebellum were immediately dissected. The fresh tissue was homogenized with an Ultra Turrax in 20 volumes of 50 mM Tris-HCl, pH 7.4 and tissue was centrifuged at 23,500 g for 10 min. After homogenisation using a DUAL homogeniser, membranes were washed twice by centrifugation at 23,500 g for 10 min. The final pellet was suspended in 10 volumes of 50 mM Tris-HCl, pH 7.4 and frozen at −80° C.
In vitro binding assay. After thawing, membranes from rat cortex, cerebellum, striatum and hippocampus were rehomogenized using a DUAL and suspended in ice-cold binding buffer containing 50 mM Tris-HCl, 1.2 mM MgCl2, 2 mM CaCl2, pH 7.4. The binding assay was carried out in a total volume of 0.5 ml containing 2.5 nM [^3H]Compound A and a membrane aliquot corresponding to 40 μg for cerebellar membranes, 60 μg for hippocampal membranes, 80 μg for striatal membranes or 150 μg for cortical membranes. […] After incubation for 30 min at 4° C., the labelled membranes were washed and harvested by rapid vacuum filtration over Whatman GF/C glass-fibre filters using a 40-well filtration manifold and radioactivity collected on the filters was counted as above.
Data analysis was performed using the GraphPad Prism program (GraphPad Prism Software, Inc., San Diego, Calif.). Saturation binding experiments were analysed using a non-linear regression analysis. Inhibition curves were fitted using non-linear regression analysis fitting the one-site competition equation: Y=Bottom+((Top−Bottom)/1+10^X-LogIC50). Ki values were calculated using the Cheng-Prusoff equation: Ki=IC50/[1+([C]/KD)] where C is the concentration of radioligand and KD is the dissociation constant of the radioligand (Cheng and Prusoff, Biochem. Pharmacol. 22, 3099-3108, 1973). The observed on (kob) and off (koff) rate were calculated from association-dissociation curves using the one-phase-exponential association and decay equations in the Prism program, respectively. kon was calculated by subtracting koff from kob and dividing by the radioligand concentration. The two-tailed Student's t-test was used for statistical evaluation of the binding data: * p<0.05, ** p<0.01 and *** p<0.001. The Dunnett's t-test following a 2-way analysis of variance (with as factors compound concentration and experiment) were used to analyse the data from the IP experiments.

[5] = inhibition of [3H]quisqualate binding, rat mGlu1a receptor CHO-dhfr− membranes, mean ± SD of 2 experiments
[6] = inhibition of glutamate-induced intracellular Ca2+ rise, CHO cells expressing mGlu1 receptor, compounds with pIC50 between 7 and 8

T1 sequence (P23385 19-1199): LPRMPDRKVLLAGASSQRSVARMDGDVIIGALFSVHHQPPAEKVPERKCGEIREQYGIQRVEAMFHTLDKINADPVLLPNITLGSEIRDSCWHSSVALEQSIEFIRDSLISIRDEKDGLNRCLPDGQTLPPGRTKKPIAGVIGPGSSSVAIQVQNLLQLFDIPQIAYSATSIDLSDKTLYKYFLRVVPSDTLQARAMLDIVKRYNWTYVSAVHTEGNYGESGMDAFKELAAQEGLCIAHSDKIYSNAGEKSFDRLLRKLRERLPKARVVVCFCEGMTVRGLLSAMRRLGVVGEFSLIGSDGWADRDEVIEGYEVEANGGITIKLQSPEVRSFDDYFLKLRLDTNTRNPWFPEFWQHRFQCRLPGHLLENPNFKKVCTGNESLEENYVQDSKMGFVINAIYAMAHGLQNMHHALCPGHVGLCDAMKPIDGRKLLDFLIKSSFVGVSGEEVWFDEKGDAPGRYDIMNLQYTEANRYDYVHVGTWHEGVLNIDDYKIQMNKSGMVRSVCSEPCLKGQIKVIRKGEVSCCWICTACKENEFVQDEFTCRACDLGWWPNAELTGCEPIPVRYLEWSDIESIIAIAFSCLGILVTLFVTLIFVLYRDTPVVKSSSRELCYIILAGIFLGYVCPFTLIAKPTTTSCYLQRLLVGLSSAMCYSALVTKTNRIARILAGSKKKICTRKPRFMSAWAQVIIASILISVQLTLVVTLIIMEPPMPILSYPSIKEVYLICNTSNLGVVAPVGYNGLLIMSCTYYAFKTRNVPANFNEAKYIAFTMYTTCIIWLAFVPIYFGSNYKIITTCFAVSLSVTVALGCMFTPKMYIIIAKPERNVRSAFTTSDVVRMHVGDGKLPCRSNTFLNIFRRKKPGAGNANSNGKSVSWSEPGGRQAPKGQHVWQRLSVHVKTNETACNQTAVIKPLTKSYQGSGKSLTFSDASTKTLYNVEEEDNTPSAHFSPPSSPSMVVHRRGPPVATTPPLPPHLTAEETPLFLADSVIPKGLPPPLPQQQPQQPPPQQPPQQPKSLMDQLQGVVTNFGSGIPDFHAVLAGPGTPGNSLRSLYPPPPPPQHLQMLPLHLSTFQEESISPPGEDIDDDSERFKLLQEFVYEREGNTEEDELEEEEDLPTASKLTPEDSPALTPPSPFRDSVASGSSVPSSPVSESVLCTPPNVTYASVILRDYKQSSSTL
T2 sequence (P23385 19-1199): as above

| Ki (rat mGlu1a receptor [1]; mean ± SD of 3–4 experiments) | inhibition of [3H]Compound A binding (in words) (rat mGlu1a receptor [1]) | Hill coefficient (rat mGlu1a receptor [2]; [5]) | Ki (rat mGlu1a receptor [2]; [5]) | Compound | further results |
| --- | --- | --- | --- | --- | --- |
| 4900 nM | – | – | – | CCOC(=O)[C@]12CC1/C(=N\O)c1ccccc1O2 (mixture of isomers) [CPCCOEt, reference compound] | Ki (rat mGlu1a receptor [2]): > 1000 µM; IC50 (rat mGlu1a receptor [3]): 10.3 ± 0.8 µM |
| > 1e+06 nM | did not inhibit | 0.97 ± 0.00 | 1.42 µM | N[C@H](C(=O)O)c1cc(O)cc(O)c1 [(S)-3,5-DHPG, reference compound] | – |
| > 1e+06 nM | – | 0.98 ± 0.02 | 1.65 ± 0.06 µM | N[C@H](C(=O)O)c1ccc(C(=O)O)c(O)c1 [(S)-4C3HPG] | – |
| > 1e+06 nM | did not inhibit | 0.98 ± 0.00 | 4.51 ± 0.78 µM | N[C@H](C(=O)O)c1ccc(C(=O)O)cc1 [(S)-4CPG, reference compound] | – |
| > 1e+06 nM | did not inhibit | 0.98 ± 0.03 | 98.3 ± 15.4 µM | NC1(C(=O)O)CCc2cc(C(=O)O)ccc21 (stereo not drawn) [AIDA, reference compound] | – |
| – | – | – | – | CCc1cc2cc(C(=O)C3CCC(OC)CC3)ccc2nc1C#C[Si](C)(C)C (stereo not drawn) [Compound 14] | IC50 [4]: 0.0631 µM; melting point: 114 °C |
| – | – | – | – | C#Cc1nc2ccc(C(=O)C3CCC(OC)CC3)cc2cc1CC (stereo not drawn) [Compound 15] | IC50 [4, 6]: 0.0117 µM; melting point: 132 °C and 133 °C |
| – | – | – | – | CCc1cc2cc(C(=O)C3CCC(OC)CC3)ccc2nc1C (stereo not drawn) [Compound 27] | pIC50 ([4]; 50% inhibition of the glutamate-induced intracellular Ca2+ rise, CHO cells, FLIPR): 8.527; melting point: 110 °C |
| – | – | – | – | CCc1cc2cc(C(=O)C3CCC(OC)CC3)ccc2n2nnnc12 (stereo not drawn) [Compound 35] | IC50 [4, 6]: 0.0437 µM; melting point: 160 °C |
| > 1e+06 nM | did not inhibit | 0.99 ± 0.01 | 1.18 ± 0.47 µM | Cc1cc(C(=O)O)ccc1[C@H](N)C(=O)O [LY367385, reference compound] | – |
| – | – | – | – | Cc1cccc(C#Cc2ccccc2)n1 [MPEP, reference compound] | effect on [3H]Compound A binding to rat cerebellar membranes (mGlu1 receptor): did not affect |
| 1.36 ± 0.5 nM | – | – | > 1000 µM | O=C(NC12CC3CC(CC(C3)C1)C2)c1cnc2ccccc2n1 [NPS 2390, reference compound] | Hill coefficient (rat mGlu1a receptor [1]; inhibition of [3H]Compound A-binding, mean ± SD of 3–4 experiments): 0.97 ± 0.02; effect on [3H]quisqualate binding (in words) (rat mGlu1a receptor [2]; rat mGlu1a receptor CHO-dhfr− membranes): did not affect |

| Compound | Ki (rat mGlu1a receptor [1]; mean ± SD of 3–4 experiments) | inhibition of [3H]Compound A binding (in words) (rat mGlu1a receptor [1]) | Hill coefficient (rat mGlu1a receptor [2]; [5]) | Ki (rat mGlu1a receptor [2]; [5]) | further results |
| --- | --- | --- | --- | --- | --- |
| N[C@@]1(C(=O)O)CC[C@@H](C(=O)O)C1 [1S,3R-ACPD, reference compound] | – | did not inhibit | 0.97 ± 0.01 | – | – |
| N[C@@H](Cn1oc(=O)[nH]c1=O)C(=O)O [quisqualate, reference compound] | – | did not inhibit | 0.98 ± 0.01 | – | – |
